PMC11768839 (Viruses, 2024)
“And” between values parts separate entries of the source, which are not always exact repeats. Equal values may be shown once.

Experiments:
[1] = Cytotoxicity in Huh7 cells (alamarBlue); format: cell-based; conditions: human, listed with HCoV-229E qPCR assay
Coronavirus (HCoV-229E) = test: HCoV-229E qPCR assay (viral RNA release into media) in Huh7 cells
HAdV-C5 = test: Adenovirus HAdV-C5 virus yield in A549 cells (endpoint dilution); format: cell-based, human adenovirus serotype 5; conditions: 5 µM, HAdV-C5 100 IU/cell, 24 hpi
SARS-CoV-2 [2] = format: cell-based
[3] = tested on: SARS-CoV-2 nucleocapsid (N) protein; test: SARS-CoV-2 nucleocapsid (N) protein expression by western blot; format: cell-based; conditions: SARS-CoV-2 SB2, Huh7 cells, immunoblot
HCoV-229E [4] = test: HCoV-229E intracellular viral RNA accumulation after delayed compound addition; format: cell-based; conditions: compound added 16 hpi, 9 h after addition, MOI 2, Huh7 cells
Pharmacokinetics in mice = format: in vivo
[5] = format: in vivo
HCoV-OC43 [6] = test: HCoV-OC43 replication in human lung organoids (RTqPCR of media); format: cell-based; conditions: 2.5 µM added post-infection, MOI of 2, 3 or 6 days post-infection
SARS-CoV-2 [7] = test: SARS-CoV-2 replication in human lung organoids (RTqPCR of media); format: cell-based; conditions: 2.5 µM added post-infection, SB2, MOI of 2, 3 or 6 days post-infection
HIV-1 = tested on: HIV-1; set-up: method as in earlier work; conditions: HIV-1 replication; cited from earlier work
Influenza A Virus (PR8) [8] = test: Influenza PR8 TCID50 assay (infectivity) in A549 cells; conditions: MOI of 2, A549 cells
HCoV-OC43 [9] = test: HCoV-OC43 viral release into media (RTqPCR) in Huh7 cells; conditions: 2.5 µM, MOI of 2, 24 h
HCoV-229E [10] = test: HCoV-229E infectious virus yield by TCID50 assay in Huh7 cells; conditions: dose reducing HCoV-229E RNA in media by 50% (EC50, 1.2 µM), 24 h
Influenza A Virus (PR8) [11] = test: Influenza PR8 qPCR assay (viral RNA release into media) in A549 cells
in vitro = conditions: human

## CC(C)C(=O)OC[C@H]1O[C@@H](n2ccc(NO)nc2=O)[C@H](O)[C@@H]1O [Molnupiravir, reference compound]
[1]; MOI of 2
  CC50: > 100000 nM
Coronavirus (HCoV-229E); MOI of 2, Huh7 cells
  EC50: 25 ± 9 nM
  EC90: 137 ± 23 nM

## O=[N+]([O-])c1ccc(Nc2ccc(Cl)c(C(F)(F)F)c2)c2nonc12 [Compound 5342191, N-[4-chloro-3-(trifluoromethyl)phenyl]-7-nitro-2,1,3-benzoxadiazol-4-amine]
[1]; MOI of 0.01
  CC50: > 1000 nM
[1]; MOI of 2
  CC50: 34000 ± 755 nM
HAdV-C5
  reduction in virus yield (maximal effect): ~ 1000 fold
SARS-CoV-2 [2]
  suppression of the release of SARS-CoV-2: approximately 80%
[3]
  reduction of SARS-CoV-2 nucleocapsid (N) protein expression: approximately 90%
HCoV-229E [4]
  reduction of viral genomic RNA accumulation: ~ 50%
Pharmacokinetics in mice
  oral bioavailability: orally bioavailable
Pharmacokinetics in mice; oral dose of 30 mg/kg, up to 8 h after administration, 30 mg/kg
  blood concentration maintained: 2 µg/mL and 5.5 µM
[5]; 5342191-treated mice
  body weight / gross necroscopy findings: absence of significant changes in body weight
[5]; daily oral dose of 40 mg/kg over 7 days, mice
  tolerability: well tolerated
HCoV-OC43 [6]
  HCoV-OC43 replication in human lung organoids: effectively blocked
SARS-CoV-2 [7]
  SARS-CoV-2 replication in human lung organoids: effectively blocked
A549 cells
  effect on cell metabolism: limited effect
HIV-1
  EC50: 750 nM
  EC90: 1750 nM
Influenza A Virus (PR8) [8]
  EC50: 75 ± 17 nM
  EC90: 99 ± 8 nM
HCoV-OC43 [9]
  inhibition of viral release into the media: over 90%
HCoV-229E [10]
  reduction in infectious virus yield: over 90%
Coronavirus (HCoV-229E); MOI of 0.01
  EC50: 73 ± 13 nM
  EC90: 857 ± 56 nM
Coronavirus (HCoV-229E); MOI of 2, Huh7 cells
  EC50: 1200 ± 196 nM
  EC90: 2500 ± 282 nM
Influenza A Virus (PR8) [11]; MOI of 0.01
  EC50: 47 ± 13 nM
  EC90: 149 ± 55 nM
Influenza A Virus (PR8) [11]; MOI of 2
  EC50: 51 ± 42 nM
  EC90: 104 ± 23 nM

## CC(C)(C)NC(=O)N[C@H](C(=O)N1C[C@H]2[C@@H]([C@H]1C(=O)NC(CC1CCC1)C(=O)C(N)=O)C2(C)C)C(C)(C)C (stereo partly drawn) [Boceprevir, reference compound]
[1]; MOI of 2
  CC50: > 100000 nM
Coronavirus (HCoV-229E); MOI of 2, Huh7 cells
  EC50: 111 ± 24 nM
  EC90: 1200 ± 95 nM

## NC(=O)c1nc(F)c[nH]c1=O [Favipiravir]
In vitro
  CC50: > 100000 nM
Influenza A Virus (PR8) [8]
  EC50: 1200 ± 135 nM
  EC90: 6200 ± 332 nM

## CCOC(=O)C1=C[C@@H](OC(CC)CC)[C@H](NC(C)=O)[C@@H](N)C1 [Oseltamivir]
In vitro
  CC50: > 100000 nM
Influenza A Virus (PR8) [8]
  EC50: 257 ± 40 nM
  EC90: 1500 ± 209 nM
